In patent US20230104936A1, “TRPML MODULATORS” (Casma Therapeutics, Inc., priority 2019, published 2023):

test system: TFEB; assay: TFEB nuclear translocation assay, HeLa wt cells; format: cell-based; conditions: Homo sapiens, HeLa, 2 h, 2 hrs compound treatment, Table 1 does not say HeLa wt or TRPML1 KO
How it was run: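 Cells are plated overnight, exposed to compounds for 2 hrs at 37° C, fixed with 4% PFA, blocked, and stained overnight at 4° C with rabbit anti-TFEB. After Alexa 488 secondary and Hoechst, nuclei and a perinuclear ring are segmented to give a nuclear:ring intensity ratio and AC50.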

| SMILES | AC50 |
| --- | --- |
| CN(C)S(=O)(=O)c1ccc(S(=O)(=O)Nc2cccc(F)c2N2CCC(N)(C(F)(F)F)CC2)cc1 [Compound A-821, N4-{2-[4-amino-4-(trifluoromethyl)piperidin-1-yl]-3-fluorophenyl}-N1,N1-dimethylbenzene-1,4-disulfonamide] | ≤ 2 µM |
| COCC1(C)CCN(c2c(NS(=O)(=O)c3ccc(S(=O)(=O)N(C)C)cc3)ccc3ccnn23)CC1 [Compound A-822, N4-{7-[4-(methoxymethyl)-4-methylpiperidin-1-yl]pyrazolo[1,5-a]pyridin-6-yl}-N1,N1-dimethylbenzene-1,4-disulfonamide] | 2.01 to 8 µM |
| Cc1cc(NS(=O)(=O)c2ccc3c(c2)CCC3)c(Cl)c(N2CCOCC2)c1 [Compound A-823, N-[2-chloro-5-methyl-3-(morpholin-4-yl)phenyl]-2,3-dihydro-1H-indene-5-sulfonamide] | ≥ 10 µM |
| C[C@@H]1COC[C@H](C)N1CC1CCN(c2c(F)cccc2NS(=O)(=O)c2ccc(S(=O)(=O)N(C)C)cc2)CC1 [Compound A-824, N4-[2-(4-{[(3R,5S)-3,5-dimethylmorpholin-4-yl]methyl}piperidin-1-yl)-3-fluorophenyl]-N1,N1-dimethylbenzene-1,4-disulfonamide] | ≤ 2 µM |
| COC(=O)NC1(C)CCN(c2c(F)cccc2NS(=O)(=O)c2ccc(S(=O)(=O)N(C)C)cc2)CC1 [Compound A-825, methyl N-(1-{2-[4-(dimethylsulfamoyl)benzenesulfonamido]-6-fluorophenyl}-4-methylpiperidin-4-yl)carbamate] | ≤ 2 µM |
| C[C@H]1CN(CC2CCN(c3c(F)cccc3NS(=O)(=O)c3ccc(S(=O)(=O)N(C)C)cc3)CC2)C[C@H](C)O1 [Compound A-826, N4-[2-(4-{[(2S,6S)-2,6-dimethylmorpholin-4-yl]methyl}piperidin-1-yl)-3-fluorophenyl]-N1,N1-dimethylbenzene-1,4-disulfonamide] | ≤ 2 µM |
| CC(=O)Nc1cccc(NS(=O)(=O)c2ccc(S(=O)(=O)N(C)C)cc2)c1N1CCCCC1 [Compound A-827, N-{3-[4-(dimethylsulfamoyl)benzenesulfonamido]-2-(piperidin-1-yl)phenyl}acetamide] | ≥ 10 µM |
| COCC1(C)C2CCC1CN(c1ccccc1NS(=O)(=O)c1ccc(S(=O)(=O)N(C)C)cc1)C2 (stereo not drawn) [Compound A-829, N4-{2-[8-(methoxymethyl)-8-methyl-3-azabicyclo[3.2.1]octan-3-yl]phenyl}-N1,N1-dimethylbenzene-1,4-disulfonamide] | ≤ 2 µM |
| CN(C)S(=O)(=O)c1ccc(S(=O)(=O)Nc2cccc(F)c2N2CCC(C)(C(F)F)CC2)cc1 [Compound A-830, N4-{2-[4-(difluoromethyl)-4-methylpiperidin-1-yl]-3-fluorophenyl}-N1,N1-dimethylbenzene-1,4-disulfonamide] | ≤ 2 µM |
| C[C@@H]1CN(CC2CCN(c3c(NS(=O)(=O)c4ccc(S(=O)(=O)N(C)C)cc4)cccc3C(F)F)CC2)C[C@H](C)O1 [Compound A-831, N4-[3-(difluoromethyl)-2-(4-{[(2R,6S)-2,6-dimethylmorpholin-4-yl]methyl}piperidin-1-yl)phenyl]-N1,N1-dimethylbenzene-1,4-disulfonamide] | ≤ 2 µM |
| CC(c1cccc(F)c1N1CCC(CN2C3CCC2COC3)CC1)S(=O)(=O)c1ccc(S(=O)(=O)N(C)C)cc1 (stereo not drawn) [Compound A-832, 4-((1-(2-(4-((3-oxa-8-azabicyclo[3.2.1]octan-8-yl)methyl)piperidin-1-yl)-3-fluorophenyl)ethyl)sulfonyl)-N,N-dimethylbenzenesulfonamide] | ≤ 2 µM |
| C[C@@H]1COC[C@@H](C)N1CC1CCN(c2c(F)cccc2NS(=O)(=O)c2ccc(S(=N)(=O)N(C)C)cc2)CC1 (stereo partly drawn) [Compound A-835, N-(2-(4-(((3S,5S)-3,5-dimethylmorpholino)methyl)piperidin-1-yl)-3-fluorophenyl)-4-(N,N-dimethylsulfamidimidoyl)benzenesulfonamide] | ≤ 2 µM |
